pIC50: −log10 of the molar value. Like-named read-outs stand apart in the source and are kept apart here.
Experiments:
GRANTA-519 = test: Cell viability assay (CellTiter-Glo, ATP quantification); type: cell-based; settings: Homo sapiens
Experimental: (§1) The 6 MCL cell lines (GRANTA-519, JEKO-1, MINO, MAVER-1, JVM-2 and REC-1) were purchased from the DSMZ (Leibniz-Institut DSMZ—Deutsche Sammlung von Mikroorganismen und Zellkulturen GmbH, Germany). They were maintained according to the supplier's recommendations. Cultures were maintained at 37° C. in a humidified atmosphere with 5% CO2.
(§2) MCL cell lines were cultured for 4 days in 96-well flat-bottom microtiter plates in RPMI 1640 medium or DMEM medium, 10% or 20% FCS (control medium) in the presence of various compounds. The number of viable cells in culture was determined using the CellTiter-Glo Luminescent Cell Viability Assay from Promega, Madison, Wis., USA using a Centro LB 960 luminometer (Berthold Technologies, Bad Wildbad, Germany).
(§3) This test is based on quantitation of the intracellular ATP present, which signals the presence of metabolically active cells. Data are expressed as the mean percentage of six replicates, normalized to the untreated control.
(§4) We investigated the therapeutic interest of iron metabolism inhibitors AM5 (Ironomycin) and AM23. The panel of 6 MCL cell lines were incubated with increasing concentrations of Ironomycin (FIG. 2 A), AM23 (FIG. 2 B) or vehicle for 96H (A). Inhibitory concentration 50% (IC50) was calculated with concentration-response curve after treatment with Ironomycin. Cell viability was examined using quantification of ATP assay. Data are expressed as mean percentage+/−SEM of at least three independent experiments performed in sixplicate. Tables 6 and 7 presenting the inhibitory concentration 50% (IC50) of Ironomycin and AM23 for the 6 MCL cell-lines.

JEKO-1 = test: as above; type: cell-based; settings: Homo sapiens
Experimental: as §1, §2, §3, §4

JVM-2 = test: as above; type: cell-based; settings: Homo sapiens
Experimental: as §1, §2, §3, §4

MAVER-1 = test: as above; type: cell-based; settings: Homo sapiens
Experimental: as §1, §2, §3, §4

MINO = test: as above; type: cell-based; settings: Homo sapiens
Experimental: as §1, §2, §3, §4

REC-1 = test: as above; type: cell-based; settings: Homo sapiens
Experimental: as §1, §2, §3, §4

primary MCL cells = test: Primary MCL cells of patients cultured with CD40L, flow cytometry; type: cell-based, human
Experimental: (§5) In a first experiment, primary MCL cells were treated with Ironomycin and incubated during 96H with CD40L. The toxicity on MCL cells (A) and non-MCL cells (B) was analyzed by flow cytometry and expressed in % of control. N=5, Median+/−IQR, t-test of pairs. * P<0.05, ** P<0.01, *** P<0.001, **** P<0.0001.
These first results were further completed by additional experiments: primary MCL cell were treated with Ironomycin (C) or AM-23 (D) and incubated during 96H with recombinant CD40L.
Results represent the median±IQR of each population cells of nine (C) and six patients (D), respectively. Statistical significance was tested using t-test of pairs: * P<0.05, ** P<0.01 *** P<0.001, **** P<0.0001 and NS: non-significant.
(§6) Cells are obtained from lymph nodes or blood of 9 patients with MCL.
(§7) In a first experiment, primary MCL cells were treated with Ironomycin and incubated during 96H with CD40L. The toxicity on MCL cells (FIG. 7 A) and non-MCL cells (FIG. 7 B) was analyzed by flow cytometry and expressed in % of control.
The toxicity on MCL cells was analyzed by flow cytometry and expressed in % of control.

[1] = system: Jeko-1 and JVM-2 MCL cell lines; settings: deferasirox 80 μM, Ironomycin 50 nM and 500 nM, 72H
Experimental: Jeko-1 and JVM2 cell line was pre-incubated with or without 80 μM of deferasirox or 50 nM and 500 nM of Ironomycin, respectively, for 4 hours followed by 72H incubation in presence or absence of FeCl3 (100 μM). Apoptosis was assessed using Annexin V-PE staining by flow cytometry.
AnnexinV-PE staining for apoptosis analysis was performed using the “PE Annexin V Apoptosis Detection Kit I” (559763, Becton Dickinson).
The inventors further investigated the effect of Iron supplementation on the cell death induced by these treatments. Iron chelator (Deferasirox) concentrations were chosen according the maximal plasmatic concentration achievable in the patient (Nisbet-Brown et al., 2003).

[2] = system: Jeko-1 and JVM-2 cell lines; test: Cell cycle analysis by flow cytometry (BrdU/DAPI); type: cell-based, human; settings: IC50 Ironomycin for 24 hours
Experimental: Cells were incubated with vehicle or with IC50 Ironomycin for 24 hours.
The cell cycle progression was studied by flow cytometry using the Apoptosis, DNA Damage, and Cell Proliferation Kit (562253, Becton Dickinson). Briefly, cells were labeled with bromodeoxyuridine (BrdU), an analog of the DNA precursor thymidine that can be incorporated into newly synthesized DNA and detected with an antibody against BrdU to measure cell proliferation. After this labeling, the cells were fixed, permeabilized and treated with DNase to expose the BrdU epitopes. Following this treatment, cells were simultaneously stained with fluorochrome-labeled anti-BrdU, anti-cleaved Poly ADP-ribose polymerase 1 (PARP), anti-H2AX phosphorylated at serine 139. They were also stained with DAPI to determine DNA content. Finally, cells were resuspended in staining buffer and analyzed by flow cytometry (Fortessa, Becton Dickinson).
Cells were incubated with vehicle or with IC50 Ironomycin for 24 hours. […] (FIG. 4)

Phospho-H2A.X (S139) = test: Western blot of Phospho-H2A.X (S139), DNA damage response; type: cell-based, human; settings: 100 nM for Jeko-1 and 500 nM for JVM-2, 24H
Experimental: Cells were treated with Ironomycin (100 nM for Jeko-1 and 500 nM for JVM-2) during 24H. Protein levels of Phospho-H2A.X (S139) were analyzed by western blot and normalized by β-actin protein level.
(§8) The total cell lysates were obtained with RIPA 1× lysis buffer (#9806, Cell Signaling®) according with the supplier recommendations.
Protein lysates migrate on 10% polyacrylamide gel (NP-0301, Novex, Life Technologies®), in MOPS 1× running buffer (NP0001, Novex, Life Technologies®) or MES 1× running buffer NP-0002, Novex, Life Technologies®) and proteins are transferred to nitrocellulose membrane (1B301001, I-Blot Transfert Starck, NuPAGE, Life Technologies®). The primary antibodies mouse-anti-phospho-Histone H2A.X (Ser139) clone JBW301 (1/1000, Merck Millipore), rabbit anti-cyclinD1 (#2926, 1/1000, Cell Signaling®), rabbit anti-phospho (S795)-Rb (#9301, 1/1000, Cell Signaling®), mouse anti-Rb (#9309, 1/1000, Cell Signaling®), mouse anti-CDK4 (#2906, 1/1000, Cell Signaling®) were incubated in TBS-Tween 20 0.1% (Tris-Buffered Saline, pH 7.4) with 5% non-fat milk or Bovine serum albumin (Sigma-Aldrich, A7906). […] Quantification of protein levels was performed with Image J® software (National Institutes of Health, Bethesda, Md., USA).
Protein levels of Phospho-H2A.X (S139) were analyzed by western blot and normalized by β-actin protein level (FIG. 5).

[3] = system: Cyclin D1, phospho-Rb, CDK4 in Jeko-1 and JVM2 cells; test: Western blot of cyclinD1, phospho-Rb, Rb and CDK4; type: cell-based, human; settings: 100 nM Jeko-1, 500 nM JVM2, 24H
Experimental: Jeko-1 and JVM2 cells were treated with Ironomycin (100 nM and 500 nM, respectively) during 24H. Protein levels of cyclinD1, phospho-Rb, Rb and CDK4 were analyzed by western blot and normalized by the β-actin expression level. This Cyclin D1 downregulation is associated with a downregulation of Rb phosphorylation and CDK4 protein levels.
as §8
Protein lysates migrate on 10% polyacrylamide gel (NP-0301, Novex, Life Technologies®), in MOPS 1× running buffer (NP0001, Novex, Life Technologies®) or MES 1× running buffer NP-0002, Novex, Life Technologies®) and proteins are transferred to nitrocellulose membrane (1B301001, I-Blot Transfert Starck, NuPAGE, Life Technologies®). The primary antibodies mouse-anti-phospho-Histone H2A.X (Ser139) clone JBW301 (1/1000, Merck Millipore), rabbit anti-cyclinD1 (#2926, 1/1000, Cell Signaling®), rabbit anti-phospho (S795)-Rb (#9301, 1/1000, Cell Signaling®), mouse anti-Rb (#9309, 1/1000, Cell Signaling®), mouse anti-CDK4 (#2906, 1/1000, Cell Signaling®) were incubated in TBS-Tween 20 0.1% (Tris-Buffered Saline, pH 7.4) with 5% non-fat milk or Bovine serum albumin (Sigma-Aldrich, A7906). Protein levels are objectified by labeling with an anti-β-actin mouse monoclonal antibody (Sigma, A5441, St Louis, Mo., USA 1/1000). Primary antibodies are visualized with secondary anti-rabbit antibodies (Sigma®, A9169) or anti-mouse antibodies (Jackson, 115-036-068) coupled to peroxidase allows the development by chemiluminescence by Western Lightning ECL (NEL121001EA, Perkin Elmer®). Quantification of protein levels was performed with Image J® software (National Institutes of Health, Bethesda, Md., USA).
Mantle cell lymphoma (MCL) is now recognized as an aggressive B-cell lymphoma with various growth patterns (mantle zone, nodular, or diffuse) and a broad range of cytologic features. […]

[4] = system: non-MCL cells (normal cells from the microenvironment); type: cell-based, human
Experimental: as §5, §6, §7

Jeko-1 and JVM-2 cells = test: Drug combination concentration matrix, cell viability by ATP quantification, Bliss synergy matrix; type: cell-based, human; settings: 96 h
Experimental: Jeko-1 and JVM-2 cells were treated with increasing concentrations of ironomycin combined with ibrutinib (BTK inhibitor) for 96 h and cell viability was tested by ATP quantification to obtain the viability matrix. The synergy matrix was calculated as described in Material and Methods.
Jeko-1 and JVM-2 cells were treated with increasing concentrations of ironomycin combined with Venetoclax (BCL2 inhibitor) for 96 h and cell viability was tested by ATP quantification to obtain the viability matrix. The synergy matrix was calculated as described in Material and Methods.
Jeko-1 and JVM-2 cells were treated with increasing concentrations of ironomycin combined with doxorubicin for 96 h and cell viability was tested by ATP quantification to obtain the viability matrix. The synergy matrix was calculated as described in Material and Methods.
The interaction between the drugs tested in vitro was investigated with a concentration matrix test, in which increasing concentration of each single drug were assessed with all possible combinations of the other drugs. For each combination, the percentage of expected growing cells in the case of effect independence was calculated according to the Bliss equation (Combes et al., 2019): […]
where fuC is the expected fraction of cells unaffected by the drug combination in the case of effect independence, and fuA and fuB are the fractions of cells unaffected by treatment A and B, respectively. The difference between the fraction of living cells in the cytotoxicity test and the fuC value was considered as an estimation of the interaction effect, with positive values indicating synergism and negative values antagonism.
Synergy matrix was built with the R package “SynergyFinder”.

[5] = system: hematopoietic progenitors
[6] = Homo sapiens, 96 h, read-out: reduction of the median number of viable primary MCL cells

SMILES: CC[C@@H](C(=O)[C@@H](C)[C@@H](O)[C@H](C)[C@@H]1O[C@@H]([C@@H](CC)C(=O)O)CC[C@@H]1C)[C@H]1O[C@]2(C=C[C@@H](NC3CC3)[C@]3(CC[C@@](C)([C@H]4CC[C@](O)(CC)[C@H](C)O4)O3)O2)[C@H](C)C[C@@H]1C [AM-23]
- pIC50 (GRANTA-519; Granta-519, 96 h): 6.07
- pIC50 (JEKO-1; JeKo-1, 96 h): 8.10
- pIC50 (JVM-2; JVM-2, 96 h): 7.24
- pIC50 (MAVER-1; Maver1, 96 h): 7.76
- pIC50 (MINO; 96 h): 7.37
- pIC50 (REC-1; Rec1, 96 h): 8.17
- cytotoxicity at 0.01 µM (primary MCL cells; [6]): 34%
- cytotoxicity at 0.02 µM (primary MCL cells; [6]): 58%
- cytotoxicity at 0.05 µM (primary MCL cells; [6]): 60%
- cytotoxicity at 0.1 µM (primary MCL cells; [6]): 64%

SMILES: C#CCN[C@@H]1C=C[C@]2(O[C@H]([C@@H](CC)C(=O)[C@@H](C)[C@@H](O)[C@H](C)[C@@H]3O[C@@H]([C@@H](CC)C(=O)O)CC[C@@H]3C)[C@@H](C)C[C@H]2C)O[C@@]12CC[C@@](C)([C@H]1CC[C@](O)(CC)[C@H](C)O1)O2 [Ironomycin]
- pIC50 (GRANTA-519; GRANTA-519, 96H incubation, cell viability by ATP, read-out: IC50): 6.10
- pIC50 (JEKO-1; JEKO-1, 96H incubation, cell viability by ATP, read-out: IC50): 7.89
- pIC50 (JVM-2; JVM-2, 96H incubation, cell viability by ATP, read-out: IC50): 6.86
- pIC50 (MAVER-1; Maver1, MAVER-1, 96H incubation, cell viability by ATP, read-out: IC50): 7.30
- pIC50 (MINO; 96H incubation, cell viability by ATP, read-out: IC50): 7.26
- pIC50 (REC-1; Rec1, REC-1, 96H incubation, cell viability by ATP, read-out: IC50): 7.27
- apoptosis monitored by Annexin V staining [1]: induces apoptosis
- cell cycle [2]: induces MCL cell cycle defect
- DNA damage response (Serine 139 phosphorylation of H2A.X) (Phospho-H2A.X (S139)): induces DNA damage response
- CDK4 protein levels [3]: downregulation
- Cyclin D1 protein level [3]: significant downregulation
- RB phosphorylation [3]: downregulation
- median number of viable primary MCL cells (first experiment) (primary MCL cells; 20 nM, 50 nM and 100 nM, 96H with CD40L, N=5): significantly reduced
- cytotoxicity at 0.02 µM (primary MCL cells; [6]): 30%
- cytotoxicity at 0.05 µM (primary MCL cells; [6]): 46%
- cytotoxicity at 0.1 µM (primary MCL cells; [6]): 53%
- toxicity for non-tumor cells from the microenvironment [4]: without major toxicity
- toxicity in MCL cells compared to normal cells from the microenvironment [4]: higher toxicity in MCL cells compared to normal cells
- interaction effect in combination with Doxorubicin (Jeko-1 and JVM-2 cells): synergistic effect
- interaction effect in combination with Ibrutinib (BTK inhibitor) (Jeko-1 and JVM-2 cells): synergistic effect
- interaction effect in combination with Venetoclax (Bcl2 inhibitor) (Jeko-1 and JVM-2 cells): synergistic effect
- toxicity on hematopoietic progenitors [5]: low toxicity

Source: US20220396840A1, “IRON-SCORE AND IN VITRO METHOD FOR IDENTIFYING MANTLE CELL LYMPHOMA (MCL) SUBJECTS AND THERAPEUTIC USES AND METHODS” (priority 2019, published 2022)
